Several values for one entry are separate records, joined by “and”; a condition that tells them apart may be missing. Identical values can stand only once.
Assays:
[1] = tested on: capsaicin-induced nociceptive behaviours; test: Visceral pain model: capsaicin solution delivered to the colon, nociceptive behaviours counted for 30 min; set-up: species or system mice; conditions: mouse, in vivo
[2] = tested on: postoperative pain (incised hind paw withdrawal latency); test: Postoperative pain, thermal stimulus, acute treatment (hind paw incision); assay type: in vivo, rats; conditions: Rattus norvegicus, iv
[3] = tested on: postoperative pain (incised hind paw withdrawal latency); test: Postoperative pain, thermal stimulus, four days of pre-treatment; assay type: in vivo, rats
Protocol: The studied compounds (dypirone at 40 mg/kg and tetrodotoxin at 0, 3, 4 μg/kg) were administered subcutaneously to groups of 12 male rats twice daily for 4 days. On the morning of Day 5, an incision was made in the hind paw of the rats. One hour later, the compounds were administered again and 30 minutes later, a thermal stimulus was applied in the incised paw and the latency to withdraw the hind paws was recorded.

[4] = tested on: formalin-induced inflammation; set-up: species or system rats; conditions: rat, in vivo
[5] = tested on: pain (visceral pain, pain caused by therapy); conditions: human, in vivo
[6] = tested on: carrageenan-induced inflammatory pain; set-up: species or system SD rats; conditions: rat, in vivo
[7] = tested on: moderate to severe pain associated with cancer; set-up: species or system human; conditions: in vivo

`CN1CC[C@]23c4c5ccc(O)c4O[C@H]2[C@@H](O)C=C[C@H]3[C@H]1C5` [Morphine] was tested, and the “effects on capsaicin-induced nociceptive behaviours versus control” value [1] was 54.8% and 92.5% and 100% and the ED50 [2] was 0.59 mg/kg.
With `Cc1c(N(C)CS(=O)(=O)[O-])c(=O)n(-c2ccccc2)n1C.[Na+]` [Dypirone, reference compound] the antinociceptive activity ([3]; 40 mg/kg s.c. b.i.d., four days of pre-treatment) was 40%.
With `N=C1NC(O)C2C3OC4(O)OC(C(O)C2(N1)C4O)C3(O)CO` (stereo not drawn) [Tetrodotoxin, octahydro-12-(hydroxymethyl)-2-imino-5,9:7,10a-dimethano-10aH-[1,3]dioxocino[6,5-d]pyrimidine-4,7,10,11,12-pentol] the antinociceptive activity ([3]; rat, in vivo) was 35% and 39%, the effective dosage [4] was 2.5 µg/mg and the analgesic response [5] was “no analgesic response”. For the same compound, the “decrease in current and average pain intensity” value [5] was “about 2 point”, the “most pain relief percentage” value [5] was 89% and the pain score [5] was 7 /10 and 4 /10. The relief of pain [5] was “complete relief of their pain”, the “effect upon the degree of inflammation” value [6] was “does not have any effect” and the “nociceptive threshold, Randall-Selitto test (paw pressure)” value ([6]; sc) was “higher nociceptive threshold”. For the same compound, the “effects on capsaicin-induced nociceptive behaviours versus control” value ([1]; sc) was 30% and 58.8%, the impression of change [7] was 1 and the total response day [7] was 66 days.
